Data from US20250041461A1, “[177LU] LUTETIUM-PSMA I&T COMPOSITION AND DOSIMETRY, KIT, METHOD OF MAKING, AND METHOD OF USING THEREOF” (Curium US LLC, priority 2023, published 2025).

Test: Eclipse PK and dosimetry sub-study, 27 patients, cycle 1 biodistribution and dosimetry (SPECT/CT, OLINDA 2.2.3)
Assay type: in vivo, human
Conditions: for Absorbed Dose Mean (SD): ECLIPSE, after Cycle 1; for Absorbed Dose in Cycle 1, Mean / Absorbed Dose in Cycle 1, min: N = 16
Description: Data Acquisition: All participating sites underwent a rigorous site setup process during which all dose calibrators, scanners, and gamma counters used in the sub-study were calibrated. Sites were allowed to enroll patients in the sub-study only after the completion and approval of all site setup processes by Invicro.
Patients underwent SPECT/CT imaging, with anatomical coverage typically extending from the salivary glands to the pelvis, following the administration of a targeted 7.4±10% GBq of ^177Lu-PSMA-I&T at cycle 1. SPECT/CT imaging was performed at four timepoints: 4 h, 24 h, 48 h, and 168 h post-injection. Additionally, a subset of patients imaged at Cycle 1 (16 out of 27), were also imaged at Cycle 3 (Table 7 in Appendix 1).
Image acquisition and reconstruction protocols were standardized across all imaging timepoints and patients at each site. Furthermore, each site consistently utilized the same SPECT/CT scanner throughout the duration of the study to ensure uniformity.
In general, raw projection data was acquired into a 128×128 matrix with medium energy general purpose (MEGP) collimation using a step and shoot acquisition mode, acquiring 60 projections per detector (180 degrees rotation per detector), 20 seconds per projection, with an acquisition zoom of 1.0, and a 20% (±10%) energy window centered over 208 keV.
A low-dose CT scan was performed prior to beginning the SPECT scan for attenuation correction. Sites were instructed to use the Institutional standard parameters for acquisition of the low-dose CT. Institutional standard reconstruction parameters were used. Scatter correction was required to be applied using a 20% (±10%) scatter window centered over 170 keV.
The imaging data was analysed using Invicro's VivoQuant software, a validated software used in a 21 CFR § 11-compliant workflow. The general quantification approach was based on the principles detailed in the Medical Internal Radiation Dose (MIRD) Pamphlet No. 16,^1 No 23,2 and No 26,3 as appropriate.
SPECT images were calibrated in units of Becquerel (Bq) using a calibration factor derived from a source of known activity, measured during site set up with the same acquisition and reconstruction parameters employed for patient imaging. A patient-specific calibration factor was also derived at each clinical time point after acquisition of the patient SPECT/CT. As a quality control measure, if the patient-specific calibration factor differed by more than 10% from the site set up calibration factor, an investigation was conducted.
Volume of interest (VOI) (kidneys, bladder, liver, lumbar vertebrae L2-L4, lacrimal glands, salivary glands [parotid and submandibular glands], and whole body) were delineated on each dataset by a trained image analyst. […] Organs were segmented either by drawing the entire contour of the organ, or by placing a sphere in a representative region of the organ and then multiplying by the organ's effective mass (based on patient's height and weight).^4 Segmentation methods for each organ are specified in Table 1 and were consistently applied to each patient.
Clearance of the radiopharmaceutical was derived from a data-appropriate fit of each organ's TAC. Depending on the TAC's shape, the data was fitted with the sum of one, two, or three exponentials, or using a rise and fall model. Fitting was performed with in-house Python software. TIACs were calculated through analytical integration of the curve fit extrapolated to infinity. […] A whole-body TAC was derived from delineating the imaged body. The remainder activity was determined by subtracting the cumulative organ TIACs from the whole body TIAC.
Organ TIACs were input into OLINDA 2.2.3 for the computation of organ and whole-body absorbed doses, using International Commission on Radiological Protection (ICRP)-103 weighing factors. The ICRP-89 derived male phantom was used for dose estimation. […]

[1] = Cycle 1, n = 26, patient 12-004 excluded
[2] = Lacrimal Glands (OLINDA sphere model)

## O=C([O-])CC[C@H](NC(=O)N[C@@H](CCCCNC(=O)CCCCCCC(=O)NCCCC[C@@H](NC(=O)[C@@H](Cc1ccccc1)NC(=O)[C@@H](Cc1ccc(O)c(I)c1)NC(=O)CC[C@H](C(=O)[O-])N1CCN(CC(=O)[O-])CCN(CC(=O)[O-])CCN(CC(=O)[O-])CC1)C(=O)[O-])C(=O)[O-])C(=O)[O-].[177Lu+3].[H+].[H+].[H+].[H+].[H+] [^177Lu-PSMA I&T, (3S,7S,26R,29R,32R,37R)-29-benzyl-32-(4-hydroxy-3-iodobenzyl)-5,13,20,28,31,34-hexaoxo-37-(4,7,10-tris(carboxymethyl)-1,4,7,10-tetraazacyclododecan-1-yl)-4,6,12,21,27,30,33-heptaazaheptatriacontane-1,3,7,26,37-pentacarboxylic acid; lutetium-177 (III)]
Bladder
  Absorbed Dose Mean (SD): 0.41 (0.05) Gy/GBq
Bone Marrow
  Absorbed Dose Mean (SD): 0.08 (0.12) Gy/GBq
Cycle 1, n = 26
  Absorbed Dose, Adrenals, Mean: 0.02 Gy/GBq
  Absorbed Dose, Adrenals, max: 0.08 Gy/GBq
  Absorbed Dose, Adrenals, median: 0.02 Gy/GBq
  Absorbed Dose, Adrenals, min: 0.01 Gy/GBq
  Absorbed Dose, Brain, Mean: 0.01 Gy/GBq
  Absorbed Dose, Brain, max: 0.07 Gy/GBq
  Absorbed Dose, Brain, median: 0.01 Gy/GBq
  Absorbed Dose, Brain, min: 0.00 Gy/GBq
  Absorbed Dose, Esophagus, Mean: 0.02 Gy/GBq
  Absorbed Dose, Esophagus, max: 0.07 Gy/GBq
  Absorbed Dose, Esophagus, median: 0.01 Gy/GBq
  Absorbed Dose, Esophagus, min: 0.00 Gy/GBq
  Absorbed Dose, Eyes, Mean: 0.01 Gy/GBq
  Absorbed Dose, Eyes, max: 0.07 Gy/GBq
  Absorbed Dose, Eyes, median: 0.01 Gy/GBq
  Absorbed Dose, Eyes, min: 0.00 Gy/GBq
  Absorbed Dose, Gallbladder wall, Mean: 0.02 Gy/GBq
  Absorbed Dose, Gallbladder wall, max: 0.07 Gy/GBq
  Absorbed Dose, Gallbladder wall, median: 0.01 Gy/GBq
  Absorbed Dose, Gallbladder wall, min: 0.00 Gy/GBq
  Absorbed Dose, Heart wall, Mean: 0.02 Gy/GBq
  Absorbed Dose, Heart wall, max: 0.07 Gy/GBq
  Absorbed Dose, Heart wall, median: 0.01 Gy/GBq
  Absorbed Dose, Heart wall, min: 0.00 Gy/GBq
  Absorbed Dose, Kidneys, Mean: 0.41 Gy/GBq
  Absorbed Dose, Kidneys, max: 0.81 Gy/GBq
  Absorbed Dose, Kidneys, median: 0.37 Gy/GBq
  Absorbed Dose, Kidneys, min: 0.17 Gy/GBq
  Absorbed Dose, Lacrimal Glands, Mean: 0.40 Gy/GBq
  Absorbed Dose, Lacrimal Glands, max: 1.19 Gy/GBq
  Absorbed Dose, Lacrimal Glands, median: 0.26 Gy/GBq
  Absorbed Dose, Lacrimal Glands, min: 0.04 Gy/GBq
  Absorbed Dose, Left colon, Mean: 0.47 Gy/GBq
  Absorbed Dose, Left colon, max: 1.53 Gy/GBq
  Absorbed Dose, Left colon, median: 0.41 Gy/GBq
  Absorbed Dose, Left colon, min: 0.01 Gy/GBq
  Absorbed Dose, Liver, Mean: 0.04 Gy/GBq
  Absorbed Dose, Liver, max: 0.10 Gy/GBq
  Absorbed Dose, Liver, median: 0.03 Gy/GBq
  Absorbed Dose, Liver, min: 0.01 Gy/GBq
  Absorbed Dose, Lungs, Mean: 0.01 Gy/GBq
  Absorbed Dose, Lungs, max: 0.07 Gy/GBq
  Absorbed Dose, Lungs, median: 0.01 Gy/GBq
  Absorbed Dose, Lungs, min: 0.00 Gy/GBq
  Absorbed Dose, Osteogenic cells, Mean: 0.05 Gy/GBq
  Absorbed Dose, Osteogenic cells, max: 0.29 Gy/GBq
  Absorbed Dose, Osteogenic cells, median: 0.02 Gy/GBq
  Absorbed Dose, Osteogenic cells, min: 0.00 Gy/GBq
  Absorbed Dose, Pancreas, Mean: 0.02 Gy/GBq
  Absorbed Dose, Pancreas, max: 0.07 Gy/GBq
  Absorbed Dose, Pancreas, median: 0.01 Gy/GBq
  Absorbed Dose, Pancreas, min: 0.00 Gy/GBq
  Absorbed Dose, Prostate, Mean: 0.02 Gy/GBq
  Absorbed Dose, Prostate, max: 0.07 Gy/GBq
  Absorbed Dose, Prostate, median: 0.01 Gy/GBq
  Absorbed Dose, Prostate, min: 0.01 Gy/GBq
  Absorbed Dose, Rectum, Mean: 0.44 Gy/GBq
  Absorbed Dose, Rectum, max: 1.46 Gy/GBq
  Absorbed Dose, Rectum, median: 0.39 Gy/GBq
  Absorbed Dose, Rectum, min: 0.01 Gy/GBq
  Absorbed Dose, Red Marrow, Mean: 0.08 Gy/GBq
  Absorbed Dose, Red Marrow, max: 0.49 Gy/GBq
  Absorbed Dose, Red Marrow, median: 0.03 Gy/GBq
  Absorbed Dose, Red Marrow, min: 0.00 Gy/GBq
  Absorbed Dose, Right Colon, max: 0.82 Gy/GBq
  Absorbed Dose, Right Colon, median: 0.22 Gy/GBq
  Absorbed Dose, Right Colon, min: 0.01 Gy/GBq
  Absorbed Dose, Right colon, Mean: 0.25 Gy/GBq
  Absorbed Dose, Small intestine, Mean: 0.05 Gy/GBq
  Absorbed Dose, Small intestine, max: 0.15 Gy/GBq
  Absorbed Dose, Small intestine, median: 0.04 Gy/GBq
  Absorbed Dose, Small intestine, min: 0.01 Gy/GBq
  Absorbed Dose, Spleen, Mean: 0.03 Gy/GBq
  Absorbed Dose, Spleen, max: 0.11 Gy/GBq
  Absorbed Dose, Spleen, median: 0.02 Gy/GBq
  Absorbed Dose, Spleen, min: 0.01 Gy/GBq
  Absorbed Dose, Stomach Wall, Mean: 0.02 Gy/GBq
  Absorbed Dose, Stomach Wall, max: 0.07 Gy/GBq
  Absorbed Dose, Stomach Wall, median: 0.01 Gy/GBq
  Absorbed Dose, Stomach Wall, min: 0.00 Gy/GBq
  Absorbed Dose, Testes, Mean: 0.01 Gy/GBq
  Absorbed Dose, Testes, max: 0.07 Gy/GBq
  Absorbed Dose, Testes, median: 0.01 Gy/GBq
  Absorbed Dose, Testes, min: 10.00 Gy/GBq
  Absorbed Dose, Thymus, Mean: 0.01 Gy/GBq
  Absorbed Dose, Thymus, max: 0.07 Gy/GBq
  Absorbed Dose, Thymus, median: 0.01 Gy/GBq
  Absorbed Dose, Thymus, min: 0.00 Gy/GBq
  Absorbed Dose, Thyroid, Mean: 0.01 Gy/GBq
  Absorbed Dose, Thyroid, max: 0.07 Gy/GBq
  Absorbed Dose, Thyroid, median: 0.01 Gy/GBq
  Absorbed Dose, Thyroid, min: 0.00 Gy/GBq
  Absorbed Dose, Total Body, Mean: 0.02 Gy/GBq
  Absorbed Dose, Total Body, max: 0.09 Gy/GBq
  Absorbed Dose, Total Body, median: 0.02 Gy/GBq
  Absorbed Dose, Total Body, min: 0.01 Gy/GBq
  Absorbed Dose, Urinary Bladder wall, Mean: 0.41 Gy/GBq
  Absorbed Dose, Urinary Bladder wall, max: 0.50 Gy/GBq
  Absorbed Dose, Urinary Bladder wall, median: 0.41 Gy/GBq
  Absorbed Dose, Urinary Bladder wall, min: 0.33 Gy/GBq
  absorbed dose, kidneys: 0.41±0.15 Gy/GBq
  absorbed dose, left colon: 0.47±0.31 Gy/GBq
  absorbed dose, rectum: 0.44±0.30 Gy/GBq
  absorbed dose, urinary bladder: 0.41±0.05 Gy/GBq
[1]
  Absorbed Dose, Salivary Glands, Mean: 0.19 Gy/GBq
  Absorbed Dose, Salivary Glands, max: 0.80 Gy/GBq
  Absorbed Dose, Salivary Glands, median: 0.15 Gy/GBq
  Absorbed Dose, Salivary Glands, min: 0.03 Gy/GBq
Heart
  Absorbed Dose Mean (SD): 0.02 (0.02) Gy/GBq
Kidneys
  Absorbed Dose Mean (SD): 0.41 (0.15) Gy/GBq
[2]
  Absorbed Dose in Cycle 1, Mean: 0.39 Gy/GBq
  Absorbed Dose in Cycle 1, min: 0.04 Gy/GBq
Lacrimal Glands
  Absorbed Dose Mean (SD): 0.40 (0.36) Gy/GBq
Left Colon
  Absorbed Dose Mean (SD): 0.47 (0.31) Gy/GBq
Liver
  Absorbed Dose Mean (SD): 0.04 (0.02) Gy/GBq
  Absorbed Dose in Cycle 1, min: 0.0 Gy/GBq
Right Colon
  Absorbed Dose Mean (SD): 0.25 (0.17) Gy/GBq
Salivary Glands
  Absorbed Dose Mean (SD): 0.19 (0.16) Gy/GBq
Spleen
  Absorbed Dose Mean (SD): 0.03 (0.02) Gy/GBq
Testes
  Absorbed Dose in Cycle 1, Mean: 0.0 Gy/GBq
Thyroid
  Absorbed Dose Mean (SD): 0.01 (0.02) Gy/GBq
Urinary Bladder wall
  Absorbed Dose in Cycle 1, Mean: 0.40 Gy/GBq
Cycle 1
  absorbed dose, lacrimal glands: 0.40±0.36 Gy/GBq
Cycle 1, image-based (L2-L4)
  mean absorbed dose, bone marrow (red marrow): 0.08±0.12 Gy/GBq
Cycle 1, patient 12-004 excluded
  absorbed dose, salivary glands: 0.19±0.16 Gy/GBq
